According to patent US5977133A, “Pyridone antibiotic with improved safety profile” (priority 1998, dated 1999):
Values after ≈ are worked out from the molar mass of the structure shown.

Assays:
Type in all cases: cell-based
C. difficile = assay: In vitro MIC, agar dilution; conditions: Clostridioides difficile
Enterobacter spp. = assay: In vitro MIC, agar dilution
E. faecium (CiproS) = assay: In vitro MIC, agar dilution; conditions: Enterococcus faecium, E. faecium (CiproS), 16 isolates
S. pneumoniae (PenS) = assay: In vitro MIC, agar dilution; conditions: Streptococcus pneumoniae
M. avium = assay: In vitro MIC, agar dilution; conditions: Mycobacterium avium
E. coli = assay: In vitro MIC, agar dilution; conditions: Escherichia coli, 25 isolates
Method in brief: (§1)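 Agar dilution plates were inoculated with ~10^4 CFU per spot by replicator, using 1:100 dilutions (1:10 for slow growers) and incubated at 35–37 °C for 20–24 h. MIC is the lowest concentration giving no growth, where slight haze or sparse colonies count as none, judged against a compound-free BHI agar control.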

Salmonella spp. = assay: In vitro MIC, agar dilution; conditions: 23 isolates
Method in brief: as §1

M. pneumoniae = assay: In vitro MIC, agar dilution; conditions: Mycoplasmoides pneumoniae, read-out: MIC Range
N. gonorrhoeae = assay: In vitro MIC, agar dilution; conditions: Neisseria gonorrhoeae
S. epidermidis (CiproR) = assay: In vitro MIC, agar dilution; conditions: Staphylococcus epidermidis, S. epidermidis (CiproR), 11 isolates
Shigella spp. = assay: microbe, parasite or virus in culture; conditions: read-out: MIC Range
S. aureus (CiproR) = assay: In vitro MIC, agar dilution; conditions: Staphylococcus aureus
B. fragilis = assay: In vitro MIC, agar dilution; conditions: Bacteroides fragilis
S. pyogenes = assay: In vitro MIC, agar dilution; conditions: Streptococcus pyogenes
M. catarrhalis = assay: In vitro MIC, agar dilution; conditions: Moraxella catarrhalis
S. aureus (CiproS) = assay: In vitro MIC, agar dilution; conditions: Staphylococcus aureus
Klebsiella spp. = assay: In vitro MIC, agar dilution
P. aeruginosa (CiproS) = assay: In vitro MIC, agar dilution; conditions: Pseudomonas aeruginosa, P. aeruginosa (CiproS), 24 isolates
Providencia spp. = assay: In vitro MIC, agar dilution; conditions: Providencia spp., 28 isolates
S. pneumoniae (CiproR) = assay: In vitro MIC, agar dilution; conditions: Streptococcus pneumoniae, read-out: MIC Range
S. epidermidis (CiproS) = assay: In vitro MIC, agar dilution; conditions: Staphylococcus epidermidis
E. faecium (CiproR) = assay: In vitro MIC, agar dilution; conditions: Enterococcus faecium; E. faecium (CiproR), 2 isolates; read-out: MIC Range
Legionella spp. = assay: microbe, parasite or virus in culture; conditions: Legionella
P. aeruginosa (CiproR) = assay: In vitro MIC, agar dilution; conditions: Pseudomonas aeruginosa
S. pneumoniae (PenR) = assay: In vitro MIC, agar dilution; conditions: Streptococcus pneumoniae
P. mirabilis = assay: In vitro MIC, agar dilution; conditions: Proteus mirabilis
H. pylori = assay: In vitro MIC, agar dilution; conditions: Helicobacter pylori
H. influenzae = assay: In vitro MIC, agar dilution; conditions: Haemophilus influenzae
C. freundii = assay: In vitro MIC, agar dilution; conditions: Citrobacter freundii
E. faecium (VanS) = assay: In vitro MIC, agar dilution; conditions: Enterococcus faecium, E. faecium (VanS), 11 isolates

`C[C@@H]1CN(c2c(F)c(N)c3c(=O)c(C(=O)O)cn(C4CC4)c3c2F)C[C@H](C)N1` [Sparfloxacin, sparfloxacin] gave an MIC (C. difficile; read-out: MIC Range) of 2 to 4 µg/mL (≈ 5.1 to 10.2 µM), an MIC50 (C. difficile; C. difficile, 10 isolates, read-out: MIC50) of 4 µg/mL (≈ 10.2 µM) and an MIC90 (C. difficile; C. difficile, 10 isolates, read-out: MIC90) of 4 µg/mL (≈ 10.2 µM). For the same compound, the MIC90 (Enterobacter spp.; Enterobacter) was 0.06 µg/mL (≈ 0.153 µM), the MIC50 (Enterobacter spp.; Enterobacter spp., 35 isolates, read-out: MIC50) was 0.06 µg/mL (≈ 0.153 µM) and the MIC (Enterobacter spp.; Enterobacter spp., 35 isolates, read-out: MIC Range) was 0.008 to 0.25 µg/mL (≈ 0.0204 to 0.637 µM). For the same compound, the MIC50 (E. faecium (CiproS); read-out: MIC50) was 0.5 µg/mL (≈ 1.27 µM), the MIC90 (E. faecium (CiproS); read-out: MIC90) was 1 µg/mL (≈ 2.55 µM) and the MIC (E. faecium (CiproS); read-out: MIC Range) was 0.5 to 32 µg/mL (≈ 1.27 to 81.5 µM). It also gave an MIC90 (S. pneumoniae (PenS)) of 0.5 µg/mL (≈ 1.27 µM), an MIC (S. pneumoniae (PenS); read-out: MIC Range) of 0.12 to 0.5 µg/mL (≈ 0.306 to 1.27 µM) and an MIC50 (S. pneumoniae (PenS); S. pneumoniae (PenS), 20 isolates, read-out: MIC50) of 0.25 µg/mL (≈ 0.637 µM). The MIC (M. avium; read-out: MIC Range) was 0.5 to 16 µg/mL (≈ 1.27 to 40.8 µM), the MIC50 (M. avium; M. avium, 20 isolates, read-out: MIC50) was 2 µg/mL (≈ 5.1 µM) and the MIC90 (M. avium; M. avium, 20 isolates, read-out: MIC90) was 2 µg/mL (≈ 5.1 µM). For the same compound, the MIC (E. coli) was 0.004 to 0.03 µg/mL (≈ 0.0102 to 0.0765 µM), the MIC50 (E. coli; read-out: MIC50) was 0.015 µg/mL (≈ 0.0382 µM) and the MIC90 (E. coli; read-out: MIC90) was 0.03 µg/mL (≈ 0.0765 µM). It also gave an MIC (Salmonella spp.) of 0.004 to 0.5 µg/mL (≈ 0.0102 to 1.27 µM), an MIC50 (Salmonella spp.; read-out: MIC50) of 0.03 µg/mL (≈ 0.0765 µM) and an MIC90 (Salmonella spp.; read-out: MIC90) of 0.06 µg/mL (≈ 0.153 µM). It also gave an MIC (M. pneumoniae) of 0.06 to 0.12 µg/mL (≈ 0.153 to 0.306 µM), an MIC90 (N. gonorrhoeae) of 0.015 µg/mL (≈ 0.0382 µM) and an MIC50 (N. gonorrhoeae; N. gonorrhoeae, 12 isolates, read-out: MIC50) of 0.004 µg/mL (≈ 0.0102 µM). For the same compound, the MIC (N. gonorrhoeae; N. gonorrhoeae, 12 isolates, read-out: MIC Range) was 0.002 to 0.06 µg/mL (≈ 0.0051 to 0.153 µM), the MIC50 (S. epidermidis (CiproR); read-out: MIC50) was 4 µg/mL (≈ 10.2 µM) and the MIC90 (S. epidermidis (CiproR); read-out: MIC90) was 8 µg/mL (≈ 20.4 µM). For the same compound, the MIC (Shigella spp.) was 0.004 to 0.015 µg/mL (≈ 0.0102 to 0.0382 µM), the MIC (S. aureus (CiproR); read-out: MIC Range) was 0.12 to 16 µg/mL (≈ 0.306 to 40.8 µM) and the MIC50 (S. aureus (CiproR); S. aureus (CiproR), 25 isolates, read-out: MIC50) was 4 µg/mL (≈ 10.2 µM). For the same compound, the MIC90 (S. aureus (CiproR); S. aureus (CiproR), 25 isolates, read-out: MIC90) was 8 µg/mL (≈ 20.4 µM), the MIC (B. fragilis; read-out: MIC Range) was 0.5 to 2 µg/mL (≈ 1.27 to 5.1 µM) and the MIC50 (B. fragilis; B. fragilis, 18 isolates, read-out: MIC50) was 1 µg/mL (≈ 2.55 µM). The MIC90 (B. fragilis; B. fragilis, 18 isolates, read-out: MIC90) was 2 µg/mL (≈ 5.1 µM), the MIC90 (S. pyogenes) was 0.5 µg/mL (≈ 1.27 µM) and the MIC (S. pyogenes; read-out: MIC Range) was 0.12 to 1 µg/mL (≈ 0.306 to 2.55 µM). The MIC50 (S. pyogenes; S. pyogenes, 21 isolates, read-out: MIC50) was 0.25 µg/mL (≈ 0.637 µM), the MIC50 (M. catarrhalis) was 0.03 µg/mL (≈ 0.0765 µM) and the MIC90 (M. catarrhalis) was 0.06 µg/mL (≈ 0.153 µM). It also gave an MIC (M. catarrhalis; M. catarrhalis, 18 isolates, read-out: MIC Range) of 0.015 to 0.25 µg/mL (≈ 0.0382 to 0.637 µM), an MIC50 (S. aureus (CiproS)) of 0.03 µg/mL (≈ 0.0765 µM) and an MIC90 (S. aureus (CiproS)) of 0.06 µg/mL (≈ 0.153 µM). For the same compound, the MIC (S. aureus (CiproS); S. aureus (CiproS), 21 isolates, read-out: MIC Range) was 0.03 to 0.06 µg/mL (≈ 0.0765 to 0.153 µM), the MIC90 (Klebsiella spp.; Klebsiella) was 0.06 µg/mL (≈ 0.153 µM) and the MIC50 (Klebsiella spp.; Klebsiella spp., 29 isolates, read-out: MIC50) was 0.06 µg/mL (≈ 0.153 µM). The MIC (Klebsiella spp.; Klebsiella spp., 29 isolates, read-out: MIC Range) was 0.004 to 0.5 µg/mL (≈ 0.0102 to 1.27 µM), the MIC50 (P. aeruginosa (CiproS); read-out: MIC50) was 0.5 µg/mL (≈ 1.27 µM) and the MIC90 (P. aeruginosa (CiproS); read-out: MIC90) was 1 µg/mL (≈ 2.55 µM). The MIC (P. aeruginosa (CiproS); read-out: MIC Range) was 0.06 to 8 µg/mL (≈ 0.153 to 20.4 µM), the MIC50 (Providencia spp.; read-out: MIC50) was 0.12 µg/mL (≈ 0.306 µM) and the MIC90 (Providencia spp.; read-out: MIC90) was 1 µg/mL (≈ 2.55 µM). The MIC (Providencia spp.; read-out: MIC Range) was 0.015 to 2 µg/mL (≈ 0.0382 to 5.1 µM), the MIC (S. pneumoniae (CiproR)) was 0.25 to 0.5 µg/mL (≈ 0.637 to 1.27 µM) and the MIC90 (S. epidermidis (CiproS)) was 0.12 µg/mL (≈ 0.306 µM). The MIC50 (S. epidermidis (CiproS); S. epidermidis (CiproS), 23 isolates, read-out: MIC50) was 0.06 µg/mL (≈ 0.153 µM), the MIC (S. epidermidis (CiproS); S. epidermidis (CiproS), 23 isolates, read-out: MIC Range) was 0.03 to 0.12 µg/mL (≈ 0.0765 to 0.306 µM) and the MIC (E. faecium (CiproR)) was 8 to 32 µg/mL (≈ 20.4 to 81.5 µM). It also gave an MIC50 (Legionella spp.) of 0.06 µg/mL (≈ 0.153 µM), an MIC90 (Legionella spp.) of 0.25 µg/mL (≈ 0.637 µM) and an MIC (Legionella spp.; read-out: MIC Range) of 0.03 to 0.25 µg/mL (≈ 0.0765 to 0.637 µM). The MIC90 (P. aeruginosa (CiproR)) was 128 µg/mL (≈ 326 µM), the MIC50 (P. aeruginosa (CiproR); P. aeruginosa (CiproR), 20 isolates, read-out: MIC50) was 64 µg/mL (≈ 163 µM) and the MIC90 (S. pneumoniae (PenR)) was 0.25 µg/mL (≈ 0.637 µM). The MIC (S. pneumoniae (PenR); read-out: MIC Range) was 0.12 to 0.25 µg/mL (≈ 0.306 to 0.637 µM), the MIC50 (S. pneumoniae (PenR); S. pneumoniae (PenR), 25 isolates, read-out: MIC50) was 0.25 µg/mL (≈ 0.637 µM) and the MIC90 (P. mirabilis) was 0.25 µg/mL (≈ 0.637 µM). For the same compound, the MIC (P. mirabilis; read-out: MIC Range) was 0.12 to 0.5 µg/mL (≈ 0.306 to 1.27 µM), the MIC50 (P. mirabilis; P. mirabilis, 20 isolates, read-out: MIC50) was 0.25 µg/mL (≈ 0.637 µM) and the MIC90 (H. pylori) was 0.25 µg/mL (≈ 0.637 µM). It also gave an MIC (H. pylori; read-out: MIC Range) of 0.06 to 0.25 µg/mL (≈ 0.153 to 0.637 µM), an MIC50 (H. pylori; H. pylori, 17 isolates, read-out: MIC50) of 0.12 µg/mL (≈ 0.306 µM) and an MIC90 (H. influenzae) of 0.015 µg/mL (≈ 0.0382 µM). It also gave an MIC50 (H. influenzae; H. influenzae, 18 isolates, read-out: MIC50) of 0.008 µg/mL (≈ 0.0204 µM), an MIC (H. influenzae; H. influenzae, 18 isolates, read-out: MIC Range) of 0.004 to 0.03 µg/mL (≈ 0.0102 to 0.0765 µM) and an MIC50 (C. freundii) of 0.03 µg/mL (≈ 0.0765 µM). For the same compound, the MIC90 (C. freundii) was 0.5 µg/mL (≈ 1.27 µM), the MIC (C. freundii; C. freundii, 20 isolates, read-out: MIC Range) was 0.015 to 1 µg/mL (≈ 0.0382 to 2.55 µM) and the MIC50 (E. faecium (VanS); read-out: MIC50) was 1 µg/mL (≈ 2.55 µM). It also gave an MIC90 (E. faecium (VanS); read-out: MIC90) of 2 µg/mL (≈ 5.1 µM) and an MIC (E. faecium (VanS); read-out: MIC Range) of 1 to 4 µg/mL (≈ 2.55 to 10.2 µM).
